Measured values reported in the NIST ThermoML archive (doi:10.1016/j.fluid.2016.02.011).

Experiment: heat capacity at constant pressure per volume; xn = mol fraction of the nth substance listed
Settings: 102.6 kPa, Liquid, DSC, Micro DSC III, x2 = 0.048

Brc1ccccc1 [bromobenzene] + CCCCCC[n+]1ccn(C)c1.O=S(=O)([N-]S(=O)(=O)C(F)(F)F)C(F)(F)F
Settings	heat capacity [J/K/m3]
287.65 K	1529000
287.9 K	1529000
288.19 K	1529000
288.46 K	1529000
288.75 K	1530000
289.02 K	1531000
289.31 K	1531000
289.59 K	1531000
289.87 K	1532000
290.14 K	1533000
290.43 K	1533000
290.74 K	1533000
290.98 K	1533000
291.26 K	1534000
291.54 K	1535000
291.82 K	1537000
292.1 K	1539000
292.38 K	1541000
292.7 K	1546000
292.8 K	1536000
292.98 K	1534000
293.27 K	1533000
293.53 K	1533000
293.82 K	1533000
294.09 K	1533000
294.37 K	1533000
294.66 K	1533000
294.94 K	1533000
295.22 K	1534000
295.5 K	1534000
295.78 K	1534000
296.06 K	1534000
296.34 K	1534000
296.62 K	1534000
296.9 K	1534000
297.18 K	1534000
297.46 K	1535000
297.74 K	1535000
298.02 K	1536000
298.3 K	1536000
298.58 K	1536000
298.86 K	1536000
299.14 K	1536000
299.42 K	1537000
299.7 K	1537000
299.98 K	1537000
300.26 K	1537000
300.54 K	1538000
300.82 K	1538000
301.1 K	1538000
301.33 K	1538000
301.6 K	1538000
302.37 K	1539000
302.98 K	1539000
303.6 K	1539000
304.21 K	1540000
304.82 K	1540000
305.43 K	1541000
306.05 K	1541000
306.66 K	1541000
307.27 K	1542000
307.88 K	1542000
308.5 K	1542000
309.11 K	1543000
309.72 K	1543000
310.34 K	1544000
310.95 K	1544000
311.56 K	1545000
312.18 K	1545000
312.79 K	1545000
313.4 K	1546000
314.01 K	1546000
314.63 K	1547000
315.24 K	1547000
315.85 K	1548000
316.46 K	1548000
317.08 K	1548000
317.69 K	1549000
318.3 K	1549000
318.92 K	1550000
319.53 K	1550000
320.14 K	1551000
320.45 K	1551000
320.75 K	1551000
321.98 K	1552000
322.59 K	1552000
323.21 K	1553000
323.82 K	1553000
324.45 K	1553000
325.05 K	1554000
325.66 K	1554000
326.27 K	1555000
326.88 K	1555000
327.5 K	1556000
328.11 K	1556000
328.72 K	1557000
329.33 K	1557000
329.95 K	1558000
330.56 K	1558000
331.02 K	1559000
